Active and inactive are the calls of the source. No cut-off for these calls is given here.
Key:
[1] = Inhibition of HCV genotype 1b isolate BK NS5B Cdelta21 RNA dependent RNA polymerase using [3H]UTP as substrate incubated for 25 mins prior to substrate addition measured after 120 mins by scintillation proximity assay; design: species or system Hepatitis C virus (isolate BK)
[2] = test system: Hepatitis C virus; assay: Antiviral activity against HCV genotype 1b infected in HuH7 cells assessed as inhibition of viral replication after 48 hrs by RT-PCR analysis; format: functional, organism-based; conditions: Hepacivirus hominis, Huh-7
[3] = target: Cytochrome P450 3A4 (Homo sapiens, UniProt P08684); assay: Inhibition of CYP3A4 (unknown origin); format: ADME
Chain of Cytochrome P450 3A4 (P08684 whole entry): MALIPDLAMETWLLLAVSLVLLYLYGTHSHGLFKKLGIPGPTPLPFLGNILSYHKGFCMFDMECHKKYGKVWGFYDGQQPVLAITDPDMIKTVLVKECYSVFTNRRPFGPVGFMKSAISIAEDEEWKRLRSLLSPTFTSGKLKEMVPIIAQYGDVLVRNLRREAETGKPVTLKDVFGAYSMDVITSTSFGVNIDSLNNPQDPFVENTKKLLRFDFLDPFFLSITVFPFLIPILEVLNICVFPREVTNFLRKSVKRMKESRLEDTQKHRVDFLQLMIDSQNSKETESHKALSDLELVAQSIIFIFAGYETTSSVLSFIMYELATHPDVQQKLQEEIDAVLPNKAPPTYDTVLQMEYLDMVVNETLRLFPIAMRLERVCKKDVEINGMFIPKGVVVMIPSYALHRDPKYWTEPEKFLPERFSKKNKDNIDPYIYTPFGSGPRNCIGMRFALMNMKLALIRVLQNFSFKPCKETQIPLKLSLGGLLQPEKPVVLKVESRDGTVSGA

[4] = target: Cytochrome P450 2D6 (Homo sapiens, UniProt P10635); assay: Inhibition of CYP2D6 (unknown origin); format: ADME
Chain of Cytochrome P450 2D6 (P10635 whole entry): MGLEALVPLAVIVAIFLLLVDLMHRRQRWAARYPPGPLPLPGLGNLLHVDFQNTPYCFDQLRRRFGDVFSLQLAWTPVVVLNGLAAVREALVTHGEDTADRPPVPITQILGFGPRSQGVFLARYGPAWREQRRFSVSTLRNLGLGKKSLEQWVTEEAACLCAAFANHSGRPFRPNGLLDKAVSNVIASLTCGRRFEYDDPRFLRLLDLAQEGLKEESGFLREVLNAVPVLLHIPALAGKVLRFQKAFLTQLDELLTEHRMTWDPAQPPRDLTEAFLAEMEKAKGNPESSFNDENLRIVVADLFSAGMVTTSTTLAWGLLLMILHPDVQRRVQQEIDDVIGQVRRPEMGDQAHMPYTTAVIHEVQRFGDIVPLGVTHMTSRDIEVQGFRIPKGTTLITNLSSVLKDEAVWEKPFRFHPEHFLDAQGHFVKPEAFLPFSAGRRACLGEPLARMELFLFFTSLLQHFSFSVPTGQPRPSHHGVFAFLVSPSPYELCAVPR

[5] = target: Cytochrome P450 2C19 (Homo sapiens, UniProt P33261); assay: Inhibition of CYP2C19 (unknown origin); format: ADME
Chain of Cytochrome P450 2C19 (P33261 whole entry): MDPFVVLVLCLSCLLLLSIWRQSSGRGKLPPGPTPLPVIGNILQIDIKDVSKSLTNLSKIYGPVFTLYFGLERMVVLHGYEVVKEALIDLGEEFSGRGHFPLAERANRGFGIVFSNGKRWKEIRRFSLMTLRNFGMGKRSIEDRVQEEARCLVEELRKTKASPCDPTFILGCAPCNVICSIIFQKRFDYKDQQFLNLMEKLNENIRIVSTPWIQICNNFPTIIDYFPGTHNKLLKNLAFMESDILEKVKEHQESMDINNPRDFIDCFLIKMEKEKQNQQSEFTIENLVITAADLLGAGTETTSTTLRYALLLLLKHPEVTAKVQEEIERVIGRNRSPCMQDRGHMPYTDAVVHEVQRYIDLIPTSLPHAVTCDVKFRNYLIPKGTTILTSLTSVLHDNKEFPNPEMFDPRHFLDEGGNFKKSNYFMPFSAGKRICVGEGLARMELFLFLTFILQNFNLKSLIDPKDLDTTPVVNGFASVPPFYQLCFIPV

[6] = target: Cytochrome P450 2C9 (Homo sapiens, UniProt P11712); assay: Inhibition of CYP2C9 (unknown origin); format: ADME
Chain of Cytochrome P450 2C9 (P11712 whole entry): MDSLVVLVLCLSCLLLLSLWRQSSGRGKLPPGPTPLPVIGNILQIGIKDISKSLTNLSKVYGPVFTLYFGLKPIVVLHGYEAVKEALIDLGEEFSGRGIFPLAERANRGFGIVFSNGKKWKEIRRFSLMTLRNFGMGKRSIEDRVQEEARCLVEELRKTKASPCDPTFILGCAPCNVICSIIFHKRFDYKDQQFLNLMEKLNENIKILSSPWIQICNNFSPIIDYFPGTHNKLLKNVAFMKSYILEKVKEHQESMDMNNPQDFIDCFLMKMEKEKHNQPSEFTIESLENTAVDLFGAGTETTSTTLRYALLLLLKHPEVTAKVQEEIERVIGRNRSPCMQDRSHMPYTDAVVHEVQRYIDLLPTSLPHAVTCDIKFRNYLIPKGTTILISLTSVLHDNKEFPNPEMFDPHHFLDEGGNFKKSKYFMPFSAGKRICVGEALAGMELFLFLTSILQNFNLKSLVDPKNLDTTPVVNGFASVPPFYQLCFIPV

[7] = Half life in human liver microsomes at 10 uM; format: ADME, Microsome
[8] = target: T1, Cytochrome P450 1A2 (Homo sapiens, UniProt P05177); assay: Inhibition of CYP1A2 (unknown origin); format: ADME
T1 sequence (P05177 whole entry): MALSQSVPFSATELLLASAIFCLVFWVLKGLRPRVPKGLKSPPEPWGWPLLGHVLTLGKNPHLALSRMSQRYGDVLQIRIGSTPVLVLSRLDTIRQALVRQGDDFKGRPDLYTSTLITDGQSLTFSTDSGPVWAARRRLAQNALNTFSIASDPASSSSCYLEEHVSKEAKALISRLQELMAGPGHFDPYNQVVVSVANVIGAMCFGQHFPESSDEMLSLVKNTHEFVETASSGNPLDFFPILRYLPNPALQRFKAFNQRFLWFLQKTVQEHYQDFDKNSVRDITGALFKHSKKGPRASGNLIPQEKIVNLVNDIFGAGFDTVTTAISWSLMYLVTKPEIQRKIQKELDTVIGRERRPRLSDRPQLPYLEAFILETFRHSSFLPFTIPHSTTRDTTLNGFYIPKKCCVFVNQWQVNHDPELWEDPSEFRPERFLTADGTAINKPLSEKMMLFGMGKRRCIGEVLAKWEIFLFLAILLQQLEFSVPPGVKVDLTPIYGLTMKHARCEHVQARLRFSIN

[9] = Permeability from apical to basal side of human Caco2 cells at pH 7.4; format: ADME, cell-based; conditions: Caco-2, pH 7.4, read-out: permeability
[10] = Solubility of the compound in buffer after 24 hrs at pH 7.2 by shake flask method; format: physicochemical
[11] = test system: Hepatitis C virus (isolate BK); assay: Ratio of IC50 for HCV genotype 1b isolate BK NS5B Cdelta21 RNA dependent RNA polymerase L419M mutant to IC50 for HCV genotype 1b isolate BK wild type NS5B Cdelta21 RNA dependent RNA polymerase
[12] = Inhibition of calf thymus RNA polymerase 2; design: species or system Bos taurus
[13] = target: RNA-directed RNA polymerase (Hepacivirus hominis, UniProt O39930, M414T); assay: Inhibition of HCV genotype 1b isolate BK NS5B Cdelta21 RNA dependent RNA polymerase M414T mutant using [3H]UTP as substrate incubated for 25 mins prior to substrate addition measured after 120 mins by scintillation proximity assay; design: species or system Hepatitis C virus (isolate BK)
Chain of RNA-directed RNA polymerase (Hepacivirus hominis, UniProt O39930, M414T) (O39930 entry or part of it M414T): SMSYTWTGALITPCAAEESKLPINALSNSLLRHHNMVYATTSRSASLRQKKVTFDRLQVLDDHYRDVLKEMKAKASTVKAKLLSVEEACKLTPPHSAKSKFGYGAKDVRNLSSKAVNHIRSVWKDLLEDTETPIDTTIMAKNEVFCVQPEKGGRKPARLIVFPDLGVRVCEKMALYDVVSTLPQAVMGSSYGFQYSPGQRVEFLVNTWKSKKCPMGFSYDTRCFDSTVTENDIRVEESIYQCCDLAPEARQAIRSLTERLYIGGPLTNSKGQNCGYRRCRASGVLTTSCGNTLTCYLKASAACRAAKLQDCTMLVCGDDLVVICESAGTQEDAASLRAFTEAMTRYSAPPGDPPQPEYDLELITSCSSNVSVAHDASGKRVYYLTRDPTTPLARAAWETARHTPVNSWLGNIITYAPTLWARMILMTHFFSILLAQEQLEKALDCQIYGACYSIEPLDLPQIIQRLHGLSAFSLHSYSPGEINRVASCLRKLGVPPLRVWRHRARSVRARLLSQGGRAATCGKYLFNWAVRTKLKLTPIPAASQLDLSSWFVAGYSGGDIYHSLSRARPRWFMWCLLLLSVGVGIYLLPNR

[14] = target: RNA-directed RNA polymerase (Hepacivirus hominis, UniProt O39930, P495S); assay: Inhibition of HCV genotype 1b isolate BK NS5B Cdelta21 RNA dependent RNA polymerase P495S mutant using [3H]UTP as substrate incubated for 25 mins prior to substrate addition measured after 120 mins by scintillation proximity assay; design: species or system Hepatitis C virus (isolate BK)
Chain of RNA-directed RNA polymerase (Hepacivirus hominis, UniProt O39930, P495S) (O39930 entry or part of it P495S): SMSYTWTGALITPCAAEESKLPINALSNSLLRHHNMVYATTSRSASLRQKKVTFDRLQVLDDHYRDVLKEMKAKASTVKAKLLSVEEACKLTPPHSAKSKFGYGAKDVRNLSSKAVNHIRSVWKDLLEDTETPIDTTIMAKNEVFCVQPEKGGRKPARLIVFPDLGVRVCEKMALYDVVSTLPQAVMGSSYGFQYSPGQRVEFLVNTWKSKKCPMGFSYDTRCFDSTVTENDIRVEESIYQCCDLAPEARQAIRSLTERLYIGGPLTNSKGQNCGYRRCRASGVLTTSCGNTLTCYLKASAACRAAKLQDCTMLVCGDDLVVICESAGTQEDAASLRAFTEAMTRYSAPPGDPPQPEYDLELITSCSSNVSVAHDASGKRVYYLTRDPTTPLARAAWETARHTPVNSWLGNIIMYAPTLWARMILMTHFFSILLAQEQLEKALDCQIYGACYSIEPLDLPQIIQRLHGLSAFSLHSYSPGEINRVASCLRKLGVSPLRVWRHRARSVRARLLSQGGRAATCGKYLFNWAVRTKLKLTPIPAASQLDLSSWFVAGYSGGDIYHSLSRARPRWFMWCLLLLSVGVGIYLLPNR

[15] = Inhibition of HCV genotype 1b isolate BK NS5B Cdelta21 RNA dependent RNA polymerase L419M mutant using [3H]UTP as substrate incubated for 25 mins prior to substrate addition measured after 120 mins by scintillation proximity assay; design: species or system Hepatitis C virus (isolate BK)
[16] = target: RNA-directed RNA polymerase (Hepacivirus hominis, UniProt O39930, M423T); assay: Inhibition of HCV genotype 1b isolate BK NS5B Cdelta21 RNA dependent RNA polymerase M423T mutant using [3H]UTP as substrate incubated for 25 mins prior to substrate addition measured after 120 mins by scintillation proximity assay; design: species or system Hepatitis C virus (isolate BK)
Chain of RNA-directed RNA polymerase (Hepacivirus hominis, UniProt O39930, M423T) (O39930 entry or part of it M423T): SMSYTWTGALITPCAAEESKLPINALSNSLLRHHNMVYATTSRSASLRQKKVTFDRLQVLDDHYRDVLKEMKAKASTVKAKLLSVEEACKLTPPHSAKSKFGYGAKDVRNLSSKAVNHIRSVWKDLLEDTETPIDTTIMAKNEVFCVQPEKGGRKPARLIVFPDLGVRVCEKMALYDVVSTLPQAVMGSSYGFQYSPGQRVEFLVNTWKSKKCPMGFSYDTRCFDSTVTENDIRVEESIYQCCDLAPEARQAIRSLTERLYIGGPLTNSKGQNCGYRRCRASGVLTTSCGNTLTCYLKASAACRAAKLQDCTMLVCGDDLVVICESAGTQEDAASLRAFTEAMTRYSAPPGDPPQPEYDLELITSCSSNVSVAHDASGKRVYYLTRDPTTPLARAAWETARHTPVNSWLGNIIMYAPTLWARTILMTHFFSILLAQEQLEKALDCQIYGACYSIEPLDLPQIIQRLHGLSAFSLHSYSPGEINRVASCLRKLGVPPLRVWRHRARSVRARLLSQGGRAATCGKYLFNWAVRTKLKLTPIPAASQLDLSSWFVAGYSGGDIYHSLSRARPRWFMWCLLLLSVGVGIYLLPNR

`O=C(O)c1cc(Br)ccc1NS(=O)(=O)c1ccccc1` showed an IC50 [1] of 43 µM.

Compound `O=C(O)c1ccc(Cl)cc1NS(=O)(=O)c1cc(F)c(Br)cc1F` has an IC50 [1] of 6.8 µM.

For `O=C(O)c1ccc(Oc2ccccc2)cc1NS(=O)(=O)c1ccc(Br)cc1F`, the IC50 [1] was 0.31 µM.

Work on `O=C(O)c1cc(Oc2ccccc2)ccc1NS(=O)(=O)c1ccc(Br)s1` yielded an IC50 [1] of 0.55 µM.

`O=C(O)c1ccc(Cl)cc1NS(=O)(=O)c1ccc(Br)s1` showed an IC50 [1] of 4.6 µM.

In the case of `O=C(O)c1cc(Oc2ccccc2)ccc1NS(=O)(=O)c1ccc(Br)cc1F`, the Activity [2] is reported as “inactive”, the IC50 [3] is reported as 26 µM and the IC50 [4] is reported as > 30 µM. It also gave an IC50 [5] of 1.1 µM, an IC50 [6] of 1.1 µM and a half-life at 10 µM [7] of 27 min. The IC50 [8] was > 30 µM, the Papp A→B [9] was < 0.1 ×10⁻⁶ cm/s and the solubility thermodynamic at 24 h [10] was > 900 µg/mL. For the same compound, the Ratio IC50 [11] was 15, the IC50 [12] was > 100 µM and the IC50 [13] was 52 nM. The IC50 [14] was 93 nM, the IC50 [15] was 1800 nM and the IC50 [16] was 200 nM. It also gave an IC50 [1] of 0.11 µM.

In the case of `Cc1cc(NS(=O)(=O)c2cc(Cl)c(Cl)cc2Cl)no1`, the IC50 [1] is reported as 100 µM.

Compound `O=C(O)c1cc(Br)ccc1NS(=O)(=O)c1cc(Cl)c(Cl)cc1Cl` has an IC50 [1] of 9 µM.

`O=C(O)c1ccc(-c2ccccc2)cc1NS(=O)(=O)c1ccc(Br)s1` showed an IC50 [1] of 6.7 µM.

With `O=C(O)c1ccc(Oc2ccccc2)cc1NS(=O)(=O)c1ccc(Br)s1` the IC50 [1] was 0.61 µM.

`O=C(O)c1ccc(Cl)cc1NS(=O)(=O)c1cc(Cl)c(Cl)cc1Cl` showed an IC50 [1] of 11 µM.

Work on `O=C(O)c1cc(Br)ccc1NS(=O)(=O)c1cc(F)c(Br)cc1F` yielded an IC50 [1] of 4.5 µM.

With `Cc1ccc(S(=O)(=O)Nc2ccc(Oc3ccccc3)cc2C(=O)O)cc1` the Activity [2] was “inactive”, the IC50 [3] was > 30 µM and the IC50 [4] was > 30 µM. For the same compound, the IC50 [5] was > 30 µM, the IC50 [6] was 3 µM and the half-life at 10 µM [7] was 11 min. The IC50 [8] was 1.8 µM, the Papp A→B [9] was 2.2 ×10⁻⁶ cm/s and the solubility thermodynamic at 24 h [10] was > 900 µg/mL. For the same compound, the Ratio IC50 [11] was 15, the IC50 [12] was > 100 µM and the IC50 [15] was 1200 nM. The IC50 [16] was 170 nM and the IC50 [1] was 0.086 µM.

For `O=C(O)c1ccccc1NS(=O)(=O)c1cc(Cl)c(Cl)cc1Cl`, the IC50 [1] was 26 µM.

`O=C(O)c1cc(-c2ccccc2)ccc1NS(=O)(=O)c1ccc(Br)s1` showed an IC50 [1] of 3.7 µM.

In the case of `Cc1ccc(S(=O)(=O)Nc2cc(Oc3ccccc3)ccc2C(=O)O)cc1`, the Activity [2] is reported as “inactive”, the IC50 [3] is reported as > 30 µM and the IC50 [4] is reported as > 30 µM. It also gave an IC50 [5] of 7.9 µM, an IC50 [6] of 3.1 µM and a half-life at 10 µM [7] of 17 min. The IC50 [8] was > 30 µM, the Papp A→B [9] was 2.4 ×10⁻⁶ cm/s and the solubility thermodynamic at 24 h [10] was > 700 µg/mL. For the same compound, the Ratio IC50 [11] was 15, the IC50 [12] was > 100 µM and the IC50 [13] was 52 nM. The IC50 [14] was 77 nM, the IC50 [15] was 1200 nM and the IC50 [16] was 100 nM. It also gave an IC50 [1] of 0.072 µM.

With `O=C(O)c1cc(Br)ccc1NS(=O)(=O)c1ccc(Cl)c(Cl)c1` the IC50 [1] was 8.4 µM.

For `O=C(O)c1cc(Br)ccc1NS(=O)(=O)c1ccc(Br)s1`, the IC50 [1] was 6.1 µM.
